Our source for the Km values is article PMC9736275 (International Journal of Molecular Sciences, 2022).

In this assay the target is T1, ATA-Gze (Fusarium graminearum, UniProt I1RDQ2).
T1 construct: gene FGRAMPH1_01T04291
T1 sequence (I1RDQ2 1-325): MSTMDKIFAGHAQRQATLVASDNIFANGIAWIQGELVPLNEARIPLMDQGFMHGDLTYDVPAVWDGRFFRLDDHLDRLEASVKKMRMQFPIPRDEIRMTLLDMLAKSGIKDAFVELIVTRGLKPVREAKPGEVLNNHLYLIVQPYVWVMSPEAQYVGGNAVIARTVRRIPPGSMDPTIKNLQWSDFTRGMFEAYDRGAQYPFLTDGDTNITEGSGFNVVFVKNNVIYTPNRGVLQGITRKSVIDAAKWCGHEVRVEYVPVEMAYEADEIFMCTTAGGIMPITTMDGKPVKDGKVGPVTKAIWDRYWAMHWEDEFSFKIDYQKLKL

`C[C@@H](N)c1ccccc1` [(R)-1-phenylethylamine]: the Km entry was “The kinetic parameters are shown in Table S3 and Figure S1”.
